Each block holds one molecule with its values, some of them ahead of it.
Legend:
[1] = Binding affinity to recombinant Bcl-2 D129L mutant (unknown origin) using peptide probe incubated for 2 hrs by fluorescence based assay; set-up: species or system Homo sapiens
[2] = Binding affinity to recombinant Bcl-2 V113G mutant (unknown origin) using peptide probe incubated for 2 hrs by fluorescence based assay; set-up: species or system Homo sapiens
[3] = target: T1, Apoptosis regulator Bcl-2 (Homo sapiens, UniProt P10415); experiment: Binding affinity to Bcl-2 (unknown origin) assessed as inhibition constant
[4] = target: T2, Bcl-2-like protein 1 (Homo sapiens, UniProt Q07817); experiment: Binding affinity to Bcl-xL (unknown origin) assessed as inhibition constant
[5] = target: T2, Bcl-2-like protein 1; experiment: Binding affinity to Bcl-xL (unknown origin) assessed as inhibition constant by fluorescence polarization assay
[6] = Cytotoxicity against human platelets assessed as cell growth inhibition incubated for 24 hrs; format: toxicity, cell-based, Platelet
[7] = tested on: MOLT-4; experiment: Cytotoxicity against human MOLT-4 cells assessed as cell growth inhibition incubated for 72 hrs; format: functional, cell-based; settings: MOLT-4, 72 h
[8] = target: T1, Apoptosis regulator Bcl-2; experiment: Binding affinity to Bcl-2 (unknown origin) assessed as inhibition constant using 5-FAM-QEDIIRNIARHLAQVGDSMDRSIPPG as substrate
[9] = target: T3, Induced myeloid leukemia cell differentiation protein Mcl-1 (Homo sapiens, UniProt Q07820); experiment: Binding affinity to Mcl-1 (unknown origin) assessed as inhibition constant using 5-FAM-QEDIIRNIARHLAQVGDSMDRSIPPG as substrate
[10] = target: T4, von Hippel-Lindau disease tumor suppressor/Bcl-2-like protein 1 (Homo sapiens, UniProt P40337+Q07817); experiment: PROTAC activity at VHL/Bcl-xL in human MOLT-4 cells assessed as induction of Bcl-xL degradation incubated for 16 hrs by immunoblot assay; format: cell-based
[11] = target: T5, von Hippel-Lindau disease tumor suppressor/Bcl-2-like protein 1 (Homo sapiens) (UniProt Q07817+P40337); experiment: PROTAC activity at VHL/Bcl-xL in human MOLT-4 cells assessed as induction of Bcl-xL degradation incubated for 16 hrs by immunoblot assay relative to control; format: cell-based
[12] = target: Protein cereblon/Bcl-2-like protein 1 (Homo sapiens) (UniProt Q07817+Q96SW2); experiment: PROTAC activity at CRBN/Bcl-xL in human MOLT-4 cells assessed as induction of Bcl-xL degradation at 100 nM incubated for 16 hrs by Western blot assay relative to control; format: cell-based
[13] = Selectivity ratio of IC50 for human platelets to IC50 for human MOLT-4 cells; format: toxicity; settings: human platelets and human MOLT-4 cells
[14] = target: T1, Apoptosis regulator Bcl-2; experiment: Displacement of synthetic peptide tracer conjugated to fluorescein isothiocyanate from C-terminal 6xHis-tagged Bcl-2 (1 to 204 residues) (unknown origin) preincubated for 1 hr followed by tracer addition measured after 20 mins by fluorescence polarization assay
[15] = target: T2, Bcl-2-like protein 1; experiment: Displacement of synthetic peptide tracer conjugated to fluorescein isothiocyanate from C-terminal 6xHis-tagged Bcl-xL (1 to 209 residues) (unknown origin) preincubated for 1 hr followed by tracer addition measured after 20 mins by fluorescence polarization assay
[16] = Solubility of the compound in aqueous buffer at physiological pH; format: physicochemical
[17] = target: T3, Induced myeloid leukemia cell differentiation protein Mcl-1; experiment: Binding affinity to human Mcl-1 assessed as inhibition constant incubated for 15 mins by competition fluorescence polarization assay
[18] = target: T1, Apoptosis regulator Bcl-2; experiment: Binding affinity to human Bcl-2 assessed as inhibition constant incubated for 15 mins by competition fluorescence polarization assay
[19] = target: T2, Bcl-2-like protein 1; experiment: Binding affinity to human Bcl-xL assessed as inhibition constant incubated for 15 mins by competition fluorescence polarization assay
[20] = target: T4, von Hippel-Lindau disease tumor suppressor/Bcl-2-like protein 1; experiment: PROTAC activity at VHL/Bcl-xL in human THP-1 cells assessed as induction of Bcl-xL degradation incubated for 24 hrs by Western blot assay; format: cell-based
[21] = target: T5, von Hippel-Lindau disease tumor suppressor/Bcl-2-like protein 1 (Homo sapiens); experiment: PROTAC activity at VHL/Bcl-xL in human THP-1 cells assessed as induction of Bcl-xL degradation incubated for 24 hrs by Western blot assay relative to control; format: cell-based

T1 sequence (P10415 whole entry): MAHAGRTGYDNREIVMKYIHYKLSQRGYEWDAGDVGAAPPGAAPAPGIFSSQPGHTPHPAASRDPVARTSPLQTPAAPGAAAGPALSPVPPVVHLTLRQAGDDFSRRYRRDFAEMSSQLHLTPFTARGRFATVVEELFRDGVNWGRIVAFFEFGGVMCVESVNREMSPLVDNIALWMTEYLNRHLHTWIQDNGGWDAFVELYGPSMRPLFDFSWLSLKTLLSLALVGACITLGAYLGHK
T2 sequence (Q07817 whole entry): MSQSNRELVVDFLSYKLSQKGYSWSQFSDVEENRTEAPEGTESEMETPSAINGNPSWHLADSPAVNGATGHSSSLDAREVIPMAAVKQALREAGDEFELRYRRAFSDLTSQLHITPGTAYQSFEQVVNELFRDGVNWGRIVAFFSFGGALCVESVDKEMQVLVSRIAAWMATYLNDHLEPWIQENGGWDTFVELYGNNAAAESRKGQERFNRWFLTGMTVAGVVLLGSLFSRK
T5 sequence (P40337 whole entry, looked up): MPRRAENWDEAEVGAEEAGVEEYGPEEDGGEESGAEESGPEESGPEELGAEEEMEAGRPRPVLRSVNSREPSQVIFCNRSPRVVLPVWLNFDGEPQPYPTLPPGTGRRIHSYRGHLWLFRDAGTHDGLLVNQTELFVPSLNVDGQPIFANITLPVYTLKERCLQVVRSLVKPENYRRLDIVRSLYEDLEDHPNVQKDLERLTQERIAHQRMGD
T5 sequence (Q07817 whole entry, looked up): as the sequence (Q07817 whole entry) above
T4 sequence (Q07817 whole entry): as above
T4 sequence (P40337 whole entry): as the sequence (P40337 whole entry, looked up) above
T3 sequence (Q07820 whole entry): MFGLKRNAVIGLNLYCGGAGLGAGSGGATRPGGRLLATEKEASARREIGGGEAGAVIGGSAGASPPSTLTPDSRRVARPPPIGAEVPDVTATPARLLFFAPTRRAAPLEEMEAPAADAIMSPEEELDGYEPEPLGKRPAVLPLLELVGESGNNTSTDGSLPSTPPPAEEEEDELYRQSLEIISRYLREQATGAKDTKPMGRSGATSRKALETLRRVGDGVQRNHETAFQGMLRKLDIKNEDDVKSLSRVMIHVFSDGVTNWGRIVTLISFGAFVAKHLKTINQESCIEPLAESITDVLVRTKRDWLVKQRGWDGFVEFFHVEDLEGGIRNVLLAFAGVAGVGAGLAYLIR
Sequence of Protein cereblon/Bcl-2-like protein 1 (Homo sapiens) (Q07817 whole entry, looked up): as the sequence (Q07817 whole entry) above
Sequence of Protein cereblon/Bcl-2-like protein 1 (Homo sapiens) (Q96SW2 whole entry, looked up): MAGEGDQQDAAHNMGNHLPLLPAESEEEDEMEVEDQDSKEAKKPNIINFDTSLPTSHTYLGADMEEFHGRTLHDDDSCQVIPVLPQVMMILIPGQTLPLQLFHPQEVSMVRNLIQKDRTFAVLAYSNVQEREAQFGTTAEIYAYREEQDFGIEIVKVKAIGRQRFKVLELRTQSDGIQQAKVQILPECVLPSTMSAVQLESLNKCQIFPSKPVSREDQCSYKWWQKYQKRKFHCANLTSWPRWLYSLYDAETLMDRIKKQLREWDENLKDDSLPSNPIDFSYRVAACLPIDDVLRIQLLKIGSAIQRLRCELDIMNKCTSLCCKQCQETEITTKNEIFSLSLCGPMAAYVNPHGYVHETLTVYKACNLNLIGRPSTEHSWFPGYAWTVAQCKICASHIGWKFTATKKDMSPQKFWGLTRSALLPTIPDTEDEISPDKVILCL

Ki [1]: 1 nM
Ki [2]: 9.6 nM
Compound: Cc1c(N(C(=O)c2cc(-c3cc(Cl)ccc3C(=O)N3Cc4ccccc4C[C@H]3CN3CCOCC3)n(C)c2C)c2ccc(O)cc2)cc(C#N)n1C [VOB-560]

Ki [3]: < 1 nM
Ki [4]: < 1 nM
Compound: Cc1c(S(C)(=O)=O)c(-c2cc(F)cc(N3CCN(c4ccc(NS(=O)(=O)c5ccc(N[C@H](CCN6CCC(C(=O)OCCCP(=O)(O)O)CC6)CSc6ccccc6)c(S(=O)(=O)C(F)(F)F)c5)cc4)CC3)c2)c(-c2ccc(Cl)cc2)n1C(C)C [PELCITOCLAX]

Ki [5]: < 1 nM
Compound: Cc1c(S(C)(=O)=O)c(-c2cc(F)cc(N3CCN(c4ccc(NS(=O)(=O)c5ccc(N[C@H](CCN6CCC(O)CC6)CSc6ccccc6)c(S(=O)(=O)C(F)(F)F)c5)cc4)CC3)c2)c(-c2ccc(Cl)cc2)n1C(C)C

Compound: CN(C)CC#Cc1ccc(OCCCc2sc(N3CCc4cccc(C(=O)Nc5nc6ccccc6s5)c4C3)nc2C(=O)O)c(F)c1 [A-1155463]
IC50 at 24 h [6]: 7.1 nM
IC50 [7]: 6.2 nM

Ki [8]: 0.45 nM
Ki [9]: 0.35 nM
Compound: N#Cc1ccc(CN2Cc3c(cc(Br)c(OCc4ccc(-c5ccccc5)cc4)c3Br)C[C@H]2C(=O)NS(=O)(=O)c2ccc(Cl)c([N+](=O)[O-])c2)cc1

EC50 [10]: 63 nM
Emax [11]: 90.8%
Compound: Cc1ncsc1-c1ccc([C@H](C)NC(=O)[C@@H]2C[C@@H](O)CN2C(=O)[C@@H](NC(=O)CCCCCC(=O)N2CCN(CC[C@H](CSc3ccccc3)Nc3ccc(S(=O)(=O)NC(=O)c4ccc(N5CCN(CC6=C(c7ccc(Cl)cc7)CCC(C)(C)C6)CC5)cc4)cc3S(=O)(=O)C(F)(F)F)CC2)C(C)(C)C)cc1 [DT-2216]

Emax [12]: 85%
Compound: O=C1CCC(N2C(=O)c3cccc(NCCOCCOCc4cn(CCCC(=O)N5CCN(CC#Cc6ccc(OCCCc7sc(N8CCc9cccc(C(=O)Nc%10nc%11ccccc%11s%10)c9C8)nc7C(=O)O)c(F)c6)CC5)nn4)c3C2=O)C(=O)N1 (stereo not drawn)
IC50 at 24 h [6]: 1140 nM
IC50 [7]: 51 nM
selectivity ratio [13]: 22

IC50 [14]: 3.9 nM
IC50 [15]: 4.5 nM
solubility [16]: < 1 µg/mL
Compound: CN(CCO)CC[C@H](CSc1ccccc1)Nc1ccc(S(=O)(=O)NC(=O)c2ccc(N3CCC([C@@H](O)c4ccccc4-c4ccc(Cl)cc4)CC3)cc2)cc1S(=O)(=O)C(F)(F)F

Ki [17]: > 550 nM
Ki [18]: 3.3 nM
Ki [19]: > 500 nM
Compound: CCN(CC)C[C@@H](O)CNc1ccc(NC[C@H]2CO2)c2c1C(=O)c1ccccc1C2=O

EC50 [20]: 4.8 nM
Emax [21]: 76%
Compound: Cc1ncsc1-c1ccc(CNC(=O)[C@@H]2C[C@@H](O)CN2C(=O)[C@@H](NC(=O)CCOCCOCCOCCOCCOCCOCC#Cc2ccc(OCCCc3sc(N4CCc5cccc(C(=O)Nc6nc7ccccc7s6)c5C4)nc3C(=O)O)cc2)C(C)(C)C)cc1

— ChEMBL document CHEMBL5107957, “Trends in targeting Bcl-2 anti-apoptotic proteins for cancer treatment” (Eur J Med Chem, 2022)
